Reference: ChEMBL document CHEMBL1201862, “PubChem BioAssay data set” (2004)
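Test compounds were applied to cells in 96-well plates for 48 hours at 5 doses. GI50 marks 50% less growth.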 Active and inactive are the calls of the source. Rule as the data show it: active = GI50 up to about 1.1 µM and inactive = higher.

Tests used:
Assay in all cases: growth of human tumour cells (NCI), 48 h
[1] = system: LOX IMVI
[2] = system: SF-268
[3] = system: A549
[4] = system: CAKI-1
[5] = system: 786-0
[6] = system: OVCAR-3
[7] = system: HCT-116
[8] = system: SR
[9] = system: HOP-62
[10] = system: RPMI-8226
[11] = system: SK-OV-3
[12] = system: MCF7
[13] = system: NCI-H23
[14] = system: HCC 2998
[15] = system: SK-MEL-28
[16] = system: Malme-3M
[17] = system: Hs-578T
[18] = system: MDA-MB-231
[19] = system: UACC-62
[20] = system: NCI-H226

SMILES	GI50 [1]	GI50 [2]	GI50 [3]	GI50 [4]	GI50 [5]	GI50 [6]	GI50 [7]	GI50 [8]	GI50 [9]	GI50 [10]	GI50 [11]	GI50 [12]	GI50 [13]	GI50 [14]	GI50 [15]	GI50 [16]	GI50 [17]	GI50 [18]	GI50 [19]	GI50 [20]
CCOC(=O)C(NCc1ccc2c(c1)OCO2)(NC(=O)c1ccccc1)C(F)(F)F (stereo not drawn)	> 100 µM (inactive)	> 100 µM (inactive)	71 µM (inactive)	> 100 µM (inactive)	> 100 µM (inactive)	> 100 µM (inactive)	89.1 µM (inactive)	36 µM (inactive)	> 100 µM (inactive)	34.7 µM (inactive)	> 100 µM (inactive)	60.3 µM (inactive)	62.2 µM (inactive)	> 100 µM (inactive)	> 100 µM (inactive)	> 100 µM (inactive)	> 100 µM (inactive)	64.4 µM (inactive)	> 100 µM (inactive)	> 100 µM (inactive)
O=C(NCCCl)Nc1ccccc1	> 100 µM (inactive)	> 100 µM (inactive)	> 100 µM (inactive)	> 100 µM (inactive)	> 100 µM (inactive)	> 100 µM (inactive)	> 100 µM (inactive)	> 100 µM (inactive)	> 100 µM (inactive)	> 100 µM (inactive)	> 100 µM (inactive)	> 100 µM (inactive)	> 100 µM (inactive)	> 100 µM (inactive)	> 100 µM (inactive)	> 100 µM (inactive)	> 100 µM (inactive)	> 100 µM (inactive)	> 100 µM (inactive)	> 100 µM (inactive)
NC(=O)C(=CNC(=S)Nc1ccc(Cl)c(Cl)c1)C(N)=O	> 92.3 µM (inactive)	> 90.8 µM (inactive)	> 100 µM (inactive)	59.4 µM (inactive)	> 71.1 µM (inactive)	> 100 µM (inactive)	> 78.2 µM (inactive)	> 71.3 µM (inactive)	> 100 µM (inactive)	36.1 µM (inactive)	> 78.7 µM (inactive)	> 52 µM (inactive)	> 92.3 µM (inactive)	26.8 µM (inactive)	> 100 µM (inactive)	> 100 µM (inactive)	30.3 µM (inactive)	> 100 µM (inactive)	49.8 µM (inactive)	0.374 µM (active)
Cc1c2oc3c(C)cnc(C(=O)NC4C(=O)NC(C(C)C)C(=O)N5CCCC5C(=O)N(C)CC(=O)N(C)C(C(C)C)C(=O)OC4C)c3nc-2c(C(=O)NC2C(=O)NC(C(C)C)C(=O)N3CCCC3C(=O)N(C)CC(=O)N(C)C(C(C)C)C(=O)OC2C)c(N)c1=O (stereo not drawn)	0.348 µM (active)	0.789 µM (active)	3.37 µM (inactive)	10.9 µM (inactive)	2.3 µM (inactive)	10.4 µM (inactive)	0.396 µM (active)	0.575 µM (active)	3.05 µM (inactive)	0.211 µM (active)	5.6 µM (inactive)	0.805 µM (active)	3.24 µM (inactive)	2.67 µM (inactive)	1.67 µM (inactive)	1.28 µM (inactive)	1.88 µM (inactive)	9.77 µM (inactive)	1.32 µM (inactive)	2.65 µM (inactive)
COc1ccc(/C=C2\C[C@H]3[C@@H]4CCC5=C/C(=N/O)CC[C@]5(C)[C@H]4CC[C@]3(C)\C2=N\O)cc1	17.9 µM (inactive)	16.9 µM (inactive)	5.01 µM (inactive)	38.3 µM (inactive)	13.1 µM (inactive)	10.2 µM (inactive)	5.21 µM (inactive)	3.99 µM (inactive)	34.4 µM (inactive)	5.12 µM (inactive)	42.7 µM (inactive)	5.01 µM (inactive)	19.5 µM (inactive)	15.8 µM (inactive)	61.8 µM (inactive)	34.1 µM (inactive)	28.5 µM (inactive)	31.6 µM (inactive)	14.5 µM (inactive)	19.1 µM (inactive)
Cc1cccc2c1C(=O)[C@](C)([C@]1(C)Nc3cccc(C)c3C1=O)N2	29.3 µM (inactive)	16.1 µM (inactive)	26.4 µM (inactive)	27.4 µM (inactive)	39.4 µM (inactive)	29.7 µM (inactive)	56.6 µM (inactive)	17.7 µM (inactive)	23.3 µM (inactive)	10.8 µM (inactive)	21.7 µM (inactive)	45.4 µM (inactive)	25.6 µM (inactive)	31.9 µM (inactive)	37.6 µM (inactive)	36.3 µM (inactive)	21.7 µM (inactive)	37.1 µM (inactive)	28.1 µM (inactive)	33 µM (inactive)
C#CCOC(=O)C(N)CC(N)=O (stereo not drawn)	> 100 µM (inactive)	> 100 µM (inactive)	> 100 µM (inactive)	> 100 µM (inactive)	> 100 µM (inactive)	> 100 µM (inactive)	> 100 µM (inactive)	> 100 µM (inactive)	> 100 µM (inactive)	> 100 µM (inactive)	> 100 µM (inactive)	> 100 µM (inactive)	> 100 µM (inactive)	> 100 µM (inactive)	> 100 µM (inactive)	> 100 µM (inactive)	> 100 µM (inactive)	> 100 µM (inactive)	> 100 µM (inactive)	> 100 µM (inactive)
C=CC(Br)(CBr)CCC1OC1(C)C (stereo not drawn)	5.47 µM (inactive)	16.7 µM (inactive)	23.1 µM (inactive)	19.5 µM (inactive)	15.7 µM (inactive)	19.5 µM (inactive)	17 µM (inactive)	26.9 µM (inactive)	18.9 µM (inactive)	20.4 µM (inactive)	24.7 µM (inactive)	14.1 µM (inactive)	16.3 µM (inactive)	18.9 µM (inactive)	16.3 µM (inactive)	23.5 µM (inactive)	15 µM (inactive)	11.8 µM (inactive)		19.8 µM (inactive)
CCN(CCCl)c1cc(CN(C)C)cc(NC(=O)c2ccc(C(=O)Nc3cccc(N(CCCl)NN)c3)cc2)c1	< 0.01 µM (active)	0.0129 µM (active)	0.0209 µM (active)	0.0168 µM (active)	< 0.01 µM (active)		0.0277 µM (active)	< 0.01 µM (active)	0.0453 µM (active)	0.0492 µM (active)	0.116 µM (active)	< 0.01 µM (active)	0.0242 µM (active)	0.0546 µM (active)	0.192 µM (active)	0.0224 µM (active)	0.0186 µM (active)	0.185 µM (active)	< 0.01 µM (active)	0.145 µM (active)
C[C@H](CCC(=O)O)[C@H]1CC[C@H]2[C@@H]3[C@@H](O)C[C@@H]4C[C@H](O)CC[C@]4(C)[C@H]3CC[C@]12C	> 100 µM (inactive)	> 100 µM (inactive)	61.4 µM (inactive)	> 100 µM (inactive)	> 100 µM (inactive)	60.8 µM (inactive)	61.7 µM (inactive)	47.8 µM (inactive)	> 100 µM (inactive)	38.1 µM (inactive)	> 100 µM (inactive)	86.7 µM (inactive)	65.2 µM (inactive)	> 100 µM (inactive)	98.6 µM (inactive)	> 100 µM (inactive)	59.8 µM (inactive)	> 100 µM (inactive)	76.2 µM (inactive)	> 100 µM (inactive)
